pKi: −log10 of the molar value. Structures can show the parent of a compound that is named as a salt.

For this assay, the target named is T1, kinase domain of human CHK-1 (KH289) (Homo sapiens, UniProt O14757).
T1 construct: kinase domain of human CHK-1 (KH289), amino acid residues 1-289; made in house; host or cells: baculovirus (Bac-to-Bac); Hi-S insect cells for protein production, Sf9/Sf21 for virus amplification
T1 sequence (O14757 1-289): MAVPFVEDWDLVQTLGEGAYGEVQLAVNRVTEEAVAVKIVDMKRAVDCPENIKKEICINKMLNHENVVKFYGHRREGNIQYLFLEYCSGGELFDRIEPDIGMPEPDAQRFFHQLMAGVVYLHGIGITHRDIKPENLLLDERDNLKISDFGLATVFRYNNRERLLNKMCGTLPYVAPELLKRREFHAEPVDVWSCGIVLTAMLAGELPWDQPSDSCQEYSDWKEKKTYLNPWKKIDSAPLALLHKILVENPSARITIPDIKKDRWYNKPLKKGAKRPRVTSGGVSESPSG
Briefly: CHK-1 coupled spectrophotometric enzyme assay (Syntide-2, PK/LDH, NADH oxidation). The assay is classed as biochemical. Conditions: 10 nM KH289, 0.15 mM ATP, 0.125 mM Syntide-2, pH 7.5. An excerpt: As previously detailed in European Patent Application No. 1 096 014 A2 (filed Oct. 31, 2000), the C-terminally His-tagged kinase domain of human CHK-1 (KH289), amino acid residues 1-289, can be expressed using the baculovirus/insect cell system. […] The Bac-to-Bac system (Life Technologies) can be used to generate recombinant baculovirus for the expression of KH289 as per instructions. Recombinant viruses can be confirmed by PCR for the presence of CHK-1 cDNA insertion. […] Sf9 insect cells (Invitrogen, Carlsbad, Calif., USA) can be used for initial amplification of recombinant virus stock. High titer stocks of recombinant viruses can be generated by 2 to 3 rounds of amplification using Sf21 insect cells. Hi-S insect cells (Invitrogen, Carlsbad, Calif., USA) can be used for protein production. Both Sf9 and Hi-S cell lines can be adapted to grow in insect medium containing 1% Fetal Bovine Serum (Life Technologies, Grand Island, N.Y., USA). The viral stock was stored at […] and used for large-scale protein production within 2 months to avoid viral instability. For protein production, infected Hi-S cells can be harvested by centrifugation and stored at −80° C. From these cells, 6X-His tagged KH289 (identified by SDS-PAGE) can be obtained after purification and can be flash-frozen in liquid N2 and stored at −80° C.
As previously detailed in European Patent Application No. 1 096 014 A2 (filed Oct. 31, 2000), the enzymatic activity of a kinase can be measured by its ability to catalyze the transfer of a phosphate residue from a nucleoside triphosphate to an amino acid side chain in a selected protein target. The conversion of ATP to ADP generally accompanies the catalytic reaction. Herein, a synthetic substrate peptide, Syntide-2, having amino acid sequence […] can be utilized. The production of ADP from ATP that accompanies phosphoryl transfer to the substrate can be coupled to oxidation of NADH using phosphoenolpyruvate (PEP) through the actions of pyruvate kinase (PK) and lactic dehydrogenase (LDH). The oxidation of NADH can be monitored by following the decrease of absorbance at 340 nm (e340=6.22 cm-1 mM-1) using a HP8452 spectrophotometer. Typical reaction solutions contained: 4 mM PEP, 0.15 mM NADH, 28 units of LDH/mL, 16 units of PK/mL, 3 mM DTT, 0.125 mM Syntide-2, 0.15 mM ATP and 25 mM MgCl2 in 50 mM TRIS pH 7.5; 400 mM NaCl. Assays can be initiated with 10 nM of kinase domain of CHK-1, KH289. Ki values can be determined by measuring initial enzyme activity in the presence of varying concentrations of inhibitors. The data can be analyzed using Enzyme Kinetic and Kaleidagraph software.
On to `Cn1cc(-c2[nH]c3cc(NC(=O)[C@]4(N)C[C@H]4c4ccccc4)cc4c3c2C=NNC4=O)cn1` [Example 262, (1S,2S)-1-Amino-2-phenyl-cyclopropanecarboxylic acid [2-(1-methyl-1H-Pyrazol-4-yl)-6-oxo-5,6-dihydro-1H-[1,2]diazepino[4,5,6-cd]indol-8-yl]-amide (hydrochloric salt)], for which the pKi was 9.52. Next, `CN(CC(=O)Nc1cc2c3c(c(-c4cnn(C)c4)[nH]c3c1)C=NNC2=O)Cc1ccccc1` [Example 274, 2-(Benzyl-methyl-amino)-N-[2-(1-methyl-1H-pyrazol-4-yl)-6-oxo-5,6-dihydro-1H-[1,2]diazepino[4,5,6-cd]indol-8-yl]-acetamide]: 8.70; `Cn1cc(-c2[nH]c3cc(NC(=O)[C@H](N)COc4ccc(F)cc4)cc4c3c2C=NNC4=O)cn1` [Example 263, (2R)-2-Amino-3-(4-fluoro-phenoxy)-N-[2-(1-methyl-1H-pyrazol-4-yl)-6-oxo-5,6-dihydro-1H-[1,2]diazepino[4,5,6-cd]indol-8-yl]-propionamide (hydrochloric salt)]: 9.37; `Cn1cc(-c2[nH]c3cc(NC(=O)CNCc4ccccc4)cc4c3c2C=NNC4=O)cn1` [Example 270, 2-Benzylamino-N-[2-(1-methyl-1H-pyrazol-4-yl)-6-oxo-5,6-dihydro-1H-[1,2]diazepino[4,5,6-cd]indol-8-yl]-acetamide (hydrochloric salt)]: 9.10. `N[C@H](CCc1ccccc1)C(=O)Nc1cc2c3c(c(Cl)[nH]c3c1)C=NNC2=O` [Example 261, (2R)-2-Amino-N-(2-chloro-6-oxo-5,6-dihydro-1H-[1,2]diazepino[4,5,6-cd]indol-8-yl)-4-phenyl-butylamide (hydrochloric salt)] had a pKi of 8.70.

For `N[C@H](CCc1ccccc1)C(=O)Nc1cc2c3c(c(Br)[nH]c3c1)C=NNC2=O` [Example 259, (2R)-2-Amino-N-(2-bromo-6-oxo-5,6-dihydro-1H-[1,2]diazepino[4,5,6-cd]indol-8-yl)-4-phenyl-butylamide (hydrochloric salt)], the pKi was 9.00. Compound `Cc1ccc(-c2[nH]c3cc(NC(=O)[C@H](N)CCc4ccccc4)cc4c3c2C=NNC4=O)cn1` [Example 267, (2R)-2-Amino-N-[2-(6-methyl-pyridin-3-yl)-6-oxo-5,6-dihydro-1H-[1,2]diazepino[4,5,6-cd]indol-8-yl]-4-phenyl-butylamide (hydrochloric salt)] had a pKi of 9.11. `Cc1ccc(-c2[nH]c3cc(NC(=O)[C@H](N)C4Cc5ccccc5C4)cc4c3c2C=NNC4=O)cn1` [Example 260, (2R)-2-Amino-2-indan-2-yl-N-[2-(6-methyl-pyridin-3-yl)-6-oxo-5,6-dihydro-1H-[1,2]diazepino[4,5,6-cd]indol-8-yl]-acetamide (hydrochloric salt)] had a pKi of 9.38.

Take `Cc1cc(-c2[nH]c3cc(NC(=O)[C@H](N)CCc4ccccc4)cc4c3c2C=NNC4=O)on1` [Example 268, (2R)-2-Amino-N-[2-(3-methyl-isoxazol-5-yl)-6-oxo-5,6-dihydro-1H-[1,2]diazepino[4,5,6-cd]indol-8-yl]-4-phenyl-butylamide (hydrochloric salt)]: the pKi is 11.00. Take `O=C1NN=Cc2c[nH]c3cc(OCC4CC4c4ccccc4)cc1c23` (stereo not shown) [Example 275, 8-[(2-phenylcyclopropyl)methoxy]-1,5-dihydro-6H-[1,2]diazepino[4,5,6-cd]indol-6-one]: the pKi is 8.15.

In the case of `Cc1cc(-c2[nH]c3cc(NC(=O)[C@H](N)C4Cc5ccccc5C4)cc4c3c2C=NNC4=O)on1` [Example 269, (2R)-2-Amino-2-indan-2-yl-N-[2-(3-methyl-isoxazol-5-yl)-6-oxo-5,6-dihydro-1H-[1,2]diazepino[4,5,6-cd]indol-8-yl]-acetamide], the pKi is 9.82. Next, `N[C@H](CCc1ccccc1)C(=O)Nc1cc2c3c(c[nH]c3c1)C=NNC2=O` [Example 276, (2R)-2-Amino-N-(6-oxo-5,6-dihydro-1H-[1,2]diazepino[4,5,6-cd]indol-8-yl)-4-Phenyl-butylamide (hydrochloric salt)]: 8.35; `Cn1cnc(-c2[nH]c3cc(NC(=O)[C@H](N)C4CCCCC4)cc4c3c2C=NNC4=O)c1` [Example 271, (2R)-2-Amino-2-cyclohexyl-N-[2-(1-methyl-1H-imidazol-4-yl)-6-oxo-5,6-dihydro-1H-[1,2]diazepino[4,5,6-cd]indol-8-yl]-acetamide (hydrochloric salt)]: 8.92; `Cn1cnc(-c2[nH]c3cc(NC(=O)[C@H](N)CCc4ccccc4)cc4c3c2C=NNC4=O)c1` [Example 266, (2R)-2-Amino-N-[2-(1-methyl-1H-imidazol-4-yl)-6-oxo-5,6-dihydro-1H-[1,2]diazepino[4,5,6-cd]indol-8-yl]-4-phenyl-butylamide (hydrochloric salt)]: 9.54. Next, `Cn1cc(-c2[nH]c3cc(NC(=O)[C@H](N)COc4ccccc4)cc4c3c2C=NNC4=O)cn1` [Example 264, (2R)-2-Amino-N-[2-(1-methyl-1H-pyrazol-4-yl)-6-oxo-5,6-dihydro-1H-[1,2]diazepino[4,5,6-cd]indol-8-yl]-3-phenoxy-propionamide (hydrochloric salt)]: 9.32; `N[C@@H](C(=O)Nc1cc2c3c(c(Cl)[nH]c3c1)C=NNC2=O)C1Cc2ccccc2C1` [Example 265, (2R)-2-Amino-N-(2-chloro-6-oxo-5,6-dihydro-1H-[1,2]diazepino[4,5,6-cd]indol-8-yl)-2-indan-2-yl-acetamide (hydrochloric salt)]: 9.14; `N[C@@H](C(=O)Nc1cc2c3c(c(-c4ccccn4)[nH]c3c1)C=NNC2=O)C1Cc2ccccc2C1` [Example 278, (2R)-2-amino-2-(2,3-dihydro-1H-inden-2-yl)-N-(6-oxo-2-pyridin-2-yl-5,6-dihydro-1H-[1,2]diazepino[4,5,6-cd]indol-8-yl)acetamide (hydrochloric salt)]: 9.33.

Compound `Cn1cc(-c2[nH]c3cc(NC(=O)[C@H](N)C4Cc5ccccc5C4)cc4c3c2C=NNC4=O)cn1` [Example 255, (2R)-2-Amino-2-indan-2-yl-N-[2-(1-methyl-1H-pyrazol-4-yl)-6-oxo-5,6-dihydro-1H-[1,2]diazepino[4,5,6-cd]indol-8-yl]-acetamide (hydrochloric salt)] showed a pKi of 9.85. This pKi is 0.52 log units higher than that of the compound before. For `Cn1cc(-c2[nH]c3cc(NC(=O)[C@H](N)c4ccc(F)cc4)cc4c3c2C=NNC4=O)cn1` [Example 273, (2R)-2-Amino-2-(4-fluoro-phenyl)-N-[2-(1-methyl-1H-pyrazol-4-yl)-6-oxo-5,6-dihydro-1H-[1,2]diazepino[4,5,6-cd]indol-8-yl]-acetamide (hydrochloric salt)] the value was 9.34; for “(2R)-2-Amino-2-indan-2-yl-N-[2-(1-methyl-1H-imidazol-4-yl)-6-oxo-5,6-dihydro-1H-[1,2]diazepino[4,5,6-cd]indol-8-yl]-acetamide (hydrochloric salt) [Example 272]”, 9.70.

Turning to `N[C@H](CCc1ccccc1)C(=O)Nc1cc2c3c(c(-c4ccccn4)[nH]c3c1)C=NNC2=O` [Example 277, (2R)-2-amino-N-(6-oxo-2-pyridin-2-yl-5,6-dihydro-1H-[1,2]diazepino[4,5,6-cd]indol-8-yl)-4-phenylbutanamide], the negative-log Ki (pKi) was 9.26.

With `N[C@@H](C(=O)Nc1cc2c3c(c[nH]c3c1)C=NNC2=O)C1Cc2ccccc2C1` [Example 257, (2R)-2-Amino-2-indan-2-yl-N-(6-oxo-5,6-dihydro-1H-[1,2]diazepino[4,5,6-cd]indol-8-yl)-acetamide (hydrochloric salt)], the pKi was 9.57.

The term pKi denotes the Ki on a negative log10 scale, so that one unit is a factor of ten.

The values are drawn from US7462713B2, “Tricyclic compounds protein kinase inhibitors for enhancing the efficacy of anti-neoplastic agents and radiation therapy” (Agouron Pharmaceuticals, Inc., priority 2003, dated 2008).
